Values after ≈ are worked out from the molar mass of the structure shown. “Also recorded” adds a separate entry of the source. Structures can show the parent of a compound that is named as a salt.
Assays:
[1] = Humidity stress at 40° C./75% RH; type: physicochemical; conditions: 5-6 days
Protocol: The larger vials were capped, sealed with Parafilm and placed inside an oven at 40° C. for up to 6 days. Salts were then removed from these conditions and changes observed (e.g. color, deliquescence etc.) before being analyzed for weight change and by XRPD. Samples were examined visually after stressing, form composition confirmed by XRPD analysis and weight change recorded (Table 7).

[2] = mice; cited from earlier work
[3] = target: adenosine A2A receptor (Homo sapiens, UniProt P29274); experiment: Adenosine A2A receptor agonist assay
Sequence of adenosine A2A receptor (P29274 whole entry): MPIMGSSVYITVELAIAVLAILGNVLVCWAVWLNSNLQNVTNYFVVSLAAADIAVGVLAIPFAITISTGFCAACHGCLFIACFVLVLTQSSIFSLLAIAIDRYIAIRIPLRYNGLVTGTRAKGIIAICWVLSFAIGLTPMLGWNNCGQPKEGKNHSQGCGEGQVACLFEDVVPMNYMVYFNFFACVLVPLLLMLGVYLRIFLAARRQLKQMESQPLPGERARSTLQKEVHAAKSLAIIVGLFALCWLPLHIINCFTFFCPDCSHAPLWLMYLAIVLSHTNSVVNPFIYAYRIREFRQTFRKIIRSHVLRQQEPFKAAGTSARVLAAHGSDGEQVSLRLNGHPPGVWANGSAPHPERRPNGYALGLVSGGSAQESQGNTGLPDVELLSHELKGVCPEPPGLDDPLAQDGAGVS

[4] = target: T1, glucocorticoid receptor (Homo sapiens, UniProt P04150); experiment: Glucocorticoid receptor agonist assay
T1 sequence (P04150 1-777): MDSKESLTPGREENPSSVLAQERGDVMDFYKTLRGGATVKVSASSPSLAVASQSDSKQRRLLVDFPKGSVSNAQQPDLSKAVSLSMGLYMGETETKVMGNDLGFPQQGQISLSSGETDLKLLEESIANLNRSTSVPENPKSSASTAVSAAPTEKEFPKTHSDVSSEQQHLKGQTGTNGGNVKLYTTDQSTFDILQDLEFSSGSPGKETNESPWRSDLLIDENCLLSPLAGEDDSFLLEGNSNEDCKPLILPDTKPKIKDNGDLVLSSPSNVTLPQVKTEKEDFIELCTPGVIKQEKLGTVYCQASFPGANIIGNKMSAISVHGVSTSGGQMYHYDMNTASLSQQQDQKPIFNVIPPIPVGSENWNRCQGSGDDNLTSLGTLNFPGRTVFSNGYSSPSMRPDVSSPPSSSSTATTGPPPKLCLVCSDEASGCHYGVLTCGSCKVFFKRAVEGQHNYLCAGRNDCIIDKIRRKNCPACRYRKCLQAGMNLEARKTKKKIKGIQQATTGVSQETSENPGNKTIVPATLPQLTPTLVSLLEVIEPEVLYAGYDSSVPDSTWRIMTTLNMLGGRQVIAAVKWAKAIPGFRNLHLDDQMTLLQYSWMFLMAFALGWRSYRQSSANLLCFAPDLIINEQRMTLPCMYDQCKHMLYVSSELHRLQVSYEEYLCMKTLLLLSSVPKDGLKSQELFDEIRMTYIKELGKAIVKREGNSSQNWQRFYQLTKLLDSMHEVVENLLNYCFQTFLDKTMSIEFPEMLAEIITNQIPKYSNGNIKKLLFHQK

[5] = rats; cited from earlier work
[6] = in vivo; conditions: male, beagle
Protocol: The PO (2 mg/kg) dose solution of micronized LA1 was prepared in 0.1% Tween-80 0.5% (w/v) and methyl cellulose in water.
The objective of the study was to investigate the preclinical pharmacokinetic profile of LA1 (micronized powder) in Beagle dog. To delineate the plasma concentration vs. time curve and characterize the relevant pharmacokinetic parameters to generate data on the PK properties viz., bioavailability, half-life (b1/2), volume of distribution, Cmax, Tmax, AUC and elimination rate constant of LA1 in Beagle dog.
LA1 was a coarse material which was micronized using laboratory scale ball mill. […] The micronized LA1 was recovered, weighed and stored in glass container at room temperature. For intravenous drug administration, LA1 excipient compatibility assay for dosing in dogs were carried out.
In brief, a known amount of LA1 was loaded to a cylindrical capped container made of stainless steel followed by addition of stainless steel balls. The ball mills were rotated on their axis for total of 60 minutes (6 cycles X 10 minutes). The micronized LA1 was recovered, weighed and stored in glass bottle at room temperature.
Test system: Healthy Beagle dog weighing 10-12 kg (age 10 months), males were used for the study. Crossover design was adopted for the experiments wherein 02 dogs were used in the study for oral and intravenous administration. Both the animals were housed stainless steel cage provided with a hopper to hold pellet feed and a separate water hopper. Temperature and humidity was maintained at 22±3° C. and 40-70%, respectively. The illumination was controlled to give a sequence of 12 h light and 12 h dark cycle. All the animals were adapted to the experimental conditions for at least 5 days prior to dosing. All animals were provided with Pedigree™ standard pellet feed, except for 10 to 12 h before treatment and 4 h after the drug administration. Water was provided ad libidum.
Formulation and drug administration: Exactly 90 mg of the test item LA1 (micronized powder) was weighed and transferred to a mortar and briefly triturated with pestle. Small volume of vehicle [0.5% (w/v) Carboxy methyl cellulose with 0.1% Tween-80] in water was then added slowly with continuous trituration until a uniform suspension was obtained. The content was then transferred into the measuring cylinder. The mortar was rinsed till the complete transfer of test item into the measuring cylinder was ensured. The final volume was then made up to 225 mL with vehicle to get a uniform suspension with desired concentration of 0.4 mg/mL. Dosing formulations were given by oral gavage at a dose volume not exceeding 5 mL/kg.
Intravenous drug formulation: Hemolysis assay using dog whole blood was employed to assess the damage of red blood cells for selection of excipient for intravenous dosing. […] Exactly 22.5 mg of the test item (micronized powder) was weighed into a graduated tube. 2.25 mL of DMSO was added drop wise and mixed by vortex. Then, 40.50 mL of Polyethylene glycol 400 (PEG-400) was added in two to three fragments and vortex intermittently. Then 2.25 mL Ethanol was added drop wise and vortex to get clear solution. The formulation was subjected to ultra-sonication for 5 minutes.
Sample collection: Serial method was used for blood sampling. Blood samples were collected as mentioned in the study design section (7). The blood sample (−1.5 mL) was collected from saphenous vein into labeled tubes, containing 2% w/v K2EDTA solution, as an anticoagulant.

[7] = mouse, in vivo, po
Source text: Mice were inoculated with B16F10 tumors as described above. Once the tumor volume reached around 45 mm^3, animals were randomized into various groups with 10 animals in all the groups so that the average tumor volume of each group was similar.
LA1 was combined with a solution containing 5% DMSO, 5% Solutol:ethanol (1:1), 20% Tween20, and 70% N-saline.

[8] = physchem
Source text: A limited salt screen was previously conducted using five inorganic counter-ions (Na, K, NH4, Ca and Mg).

Weight gain (%) [1]	efficacy in adenosine A2A receptor agonist assay [3]	efficacy in glucocorticoid receptor agonist assay [4]	Dog Cl [6]	Dog F % (absolute oral bioavailability) [6]	AUC ([6]; dog, po, 2 mg/kg)	Tmax ([6]; dog, po, 2 mg/kg)	AUC0-t ([6]; dog, po, 2 mg/kg, AUC0-12)	Cmax ([6]; dog, po, 2 mg/kg, Cmax (peak concentration))	half-life ([6]; dog, po, 2 mg/kg, t1/2 (hr), oral half-life)	exposure in blood at end of study [7]	exposure in tumor at end of study [7]	solubility [8]	Compound	XRPD after stressing [1]	renal ischemia/reperfusion injury [2]	neointimal thickening upon vascular injury [5]
8.9%	–	–	–	–	–	–	–	–	–	–	–	–	O=C(O)c1ccc(-c2ccc(/C=C3\SC(=S)N(Cc4ccccc4)C3=O)o2)cc1 [LA1 choline salt]	phase change; also recorded: New pattern (Q)	–	–
–	shown efficacy	shown efficacy	2.1 mL/min/kg	50%	6.1 µM·h	4 h	2570 ng·h/mL	685 ng/mL	~2 h	below the limit of quantitation	below the limit of quantitation	0.78 µg/mL (≈ 1.85 µM)	O=C(O)c1ccc(-c2ccc(/C=C3\SC(=S)N(Cc4ccccc4)C3=O)o2)cc1 [LA1, (Z)-4-(5-((3-benzyl-4-oxo-2-thioxothiazolidin-5-ylidene)methyl)furan-2-yl)benzoic acid]	–	reduce renal ischemia/reperfusion injury	reduce neointimal thickening
